Assay results published in patent US6852688B2, “Compositions for treating diabetic retinopathy and methods of using same” (University of Florida, priority 2000, dated 2005).
Values joined by “and” are separate entries in the source; they are usually repeats but may differ in a detail not shown here. Equal entries are not always repeated.

Assays:
[1] = system: patients with Type I or Type II diabetes and severe non-proliferative DR or non-"high risk" proliferative DR; experiment: Phase II human study: octreotide plus thyroid hormone (levothyroxine) versus conventional diabetes management, 15 months; assay type: in vivo; conditions: thyroxine alone 100 to 200 μg/day for hypothyroidism, no octreotide
From the text: A total of 39 patients with type I or type II diabetes and diagnosed with either severe non-proliferative DR or non-“high risk” proliferative DR were enrolled between 1991 and 1996 into Phase I or Phase II of the study. Subjects were recruited from patients treated for diabetes mellitus at the University of Florida Adult Endocrinology clinics and referrals from community retinal specialists. All patients provided written informed consent to participate in required study procedures. Volunteers in both phases of the study were randomized to receive conventional diabetes management alone (control group) or octreotide treatment with conventional diabetes care (OCT group). Octreotide was administered via subcutaneous injection 4 times daily or via continuous subcutaneous infusion with doses individually adjusted to the highest tolerated somatostatin analogue levels. […]
Subjects were evaluated at monthly intervals for ocular changes using procedures established in the Early Treatment Diabetic Retinopathy Study (ETDRS) trial (Techniques for scatter and local photocoagulation treatment of diabetic retinopathy. Early Treatment Diabetic Retinopathy Study Report No. 3. The Early Treatment Diabetic Retinopathy Study Research Group. Int Ophthalmol Clin. 27:254-64 (1987)). […] Photographs were assessed for severity of retinopathy using an extension of the modified Airlie House classification scheme. […]

patients with early DR = conditions: cited from earlier work
[2] = system: patients with type I diabetes and severe non-proliferative DR or non-"high risk" proliferative DR; experiment: Phase I human study: octreotide plus conventional diabetes management versus conventional management alone, 15 months; assay type: in vivo
From the text: A total of 39 patients with type I or type II diabetes and diagnosed with either severe non-proliferative DR or non-“high risk” proliferative DR were enrolled between 1991 and 1996 into Phase I or Phase II of the study. Subjects were recruited from patients treated for diabetes mellitus at the University of Florida Adult Endocrinology clinics and referrals from community retinal specialists. All patients provided written informed consent to participate in required study procedures. Volunteers in both phases of the study were randomized to receive conventional diabetes management alone (control group) or octreotide treatment with conventional diabetes care (OCT group). Octreotide was administered via subcutaneous injection 4 times daily or via continuous subcutaneous infusion with doses individually adjusted to the highest tolerated somatostatin analogue levels. The intent was to increase the dose of octreotide until serum IGF-1 was decreased to the hypopituitary range of 75 ng/mL or drug related adverse effects limited octreotide dosing. […] It was expected that approximately 35 to 50% of the control group would progress to photocoagulation within the 15-month period (The Diabetic Retinopathy Study Research Group: Indications for photocoagulation treatment of diabetic retinopathy: Diabetic Reinopathy Study Report No. 14. Int. Opthalmol. Clin. 27:239 (1987)).
Subjects were evaluated at monthly intervals for ocular changes using procedures established in the Early Treatment Diabetic Retinopathy Study (ETDRS) trial (Techniques for scatter and local photocoagulation treatment of diabetic retinopathy. Early Treatment Diabetic Retinopathy Study Report No. 3. The Early Treatment Diabetic Retinopathy Study Research Group. Int Ophthalmol Clin. 27:254-64 (1987)). Ocular examination included fluorescein angiograms and stereoscopic fundis photographs using seven standard photographic fields. Each field was 30 degrees with the first 2 fields centered on the disc and macula. The other fields imaged the surrounding retina. Photographs were assessed for severity of retinopathy using an extension of the modified Airlie House classification scheme. Severe non-proliferative DR required the presence of at least 3 of the following characteristics: cotton wool patches, venous beading, intraretinal microvascular abnormalities (IRMA) or extensive retinal hemorrhages. Inclusion criteria also required understanding the study protocol and willingness to participate in required study procedures. Exclusion criteria included: current use of tobacco products, regular medication other than prescribed antidiabetic agents and thyroxine, history of psychiatric illness, illicit drug use, sitting diastolic blood pressure values greater than […], serum creatinine clearance below 30 ml/min, and a body mass index that differed more than 20% from normal published ranges for the subject's height and sex.
Sixteen subjects with Type I diabetes participated in and completed the Phase-I protocol, with 8 patients randomly assigned to conventional diabetes management and 8 patients assigned treatment with maximally tolerated doses of octreotide in conjunction with routine diabetes management.
Initial octreotide doses of 500 μg/day were escalated based on IGF-1 levels to a maximum of 3000 μg/day during the 15-month treatment period. The range of maximally tolerated octreotide doses used throughout the 15-month treatment period was 600 to 3000 μg/day. The Phase protocol included a 5-day evaluation period with patients confined to the clinical research unit at study initiation. Octreotide treated patients were monitored for response to the initial 500 μg/day dose of octreotide (administered as a constant subcutaneous infusion). GH secretion was quantified from area under the serum concentration versus time curve (AUC) for blood samples collected every 2 to 4 hours throughout a 24-hour period. […]

[3] = system: human retinal endothelial cells; conditions: rapidly proliferating cells, in vitro; cited from earlier work
[4] = octreotide treated group, p<0.05 vs conventionally treated group

Compound	control patients receiving thyroxine who required PRP [1]	retinal disease versus conventionally managed patients (patients with early DR; early DR, one year, 400 μg/day)	thyroid adverse finding (patients with early DR; infused for one year with 400 μg/day, no evidence for clinical significance)	patients requiring PRP during the 15-month study ([2]; 8 patients per group, control also 4 of 8)	mean time for disease progression to laser surgery (PRP) ([2]; control 6.0 months, not different) [months]	mean HbA1c after at least 3 months of study ([2]; conventional management 8.1%±1.8%, p<0.05)	mean decrease in 24 hour AUC for GH (GH secretion) ([2]; initial 500 μg/day constant subcutaneous infusion, day 5 of treatment, compared to control, p<0.05) [%]	patients with IGF-1 decreased into the hypophysectomized range of 75 ng/ml ([2]; maximally tolerated doses 600 to 3000 μg/day)	effect on progression of DR ([2]; maximally tolerated octreotide in the absence of thyroid hormone replacement)	mean IGF-1 at the end of treatment ([2]; octreotide 600 to 3000 μg/day, 15 months, decreased from 241±58 ng/ml at study enrollment, p<0.05 vs control) [ng/mL]	decrease in insulin requirements [2, 4] [%]	improvement in proteinuria [2, 4] [%]	effect on IGF-I and b-FGF stimulated growth of cells [3]
N[C@@H](Cc1cc(I)c(Oc2cc(I)c(O)c(I)c2)c(I)c1)C(=O)O [thyroxine, levothyroxine]	3 of the 7												
C[C@@H](O)[C@@H]1NC(=O)[C@H](CCCCN)NC(=O)[C@@H](Cc2c[nH]c3ccccc23)NC(=O)[C@H](Cc2ccccc2)NC(=O)[C@@H](NC(=O)[C@H](N)Cc2ccccc2)CSSC[C@@H](C(=O)N[C@H](CO)[C@@H](C)O)NC1=O [octreotide]		no difference	mild hypothyroidism	Four and 4 of 8	8.5	6.4%±0.9	33	1 of 8	not effective in retarding progression of DR	130 ± 38	29	82	direct inhibitory effects
